Values of other authors in article PMC3345309 (Hepatology (Baltimore, Md.), 2012).

Experiments:
[1] = system: HCV Renilla reporter virus; conditions: ref [18]
[2] = system: NS5A-augmented HCV IRES-mediated translation; conditions: ref [18]

O=c1c(O)c(-c2ccc(O)c(O)c2)oc2cc(O)cc(O)c12 [Quercetin]
effect on virus production [1]: blocked | effect on NS5A-augmented IRES-mediated translation [2]: blocked
